Measurements: patent publication US9682033B2, “Methods of treating postherpetic neuralgia with a topical formulation of a spiro-oxindole compound” (Teva Pharmaceuticals International GmbH, priority 2015, dated 2017)
Where “and” joins values, the source holds several entries; their conditions need not be identical. Identical values can stand only once. Entries after “also recorded” stand apart in the source; their conditions may differ.

Legend:
[1] = Protein binding in rat serum; format: in vitro ADME
dog hepatocytes = test: In vitro metabolic stability in hepatocytes (dog); format: in vitro ADME; conditions: ^14C-spiro-oxindole compound
From the text: A total of 8 metabolites were identified in samples (in vitro and in vivo) from rats, dogs, and humans. All metabolites found in humans were also found in the Good Laboratory Practice (GLP) toxicology species, the rat. Following oral administration of spiro-oxindole compound to humans, spiro-oxindole compound and 3 of its metabolites (M1, M5, and M6) were measurable. A similar metabolic profile was observed following topical administration to humans, albeit at much lower plasma concentrations, except metabolite M1 was not detected following human topical administration.

3A4 (CYP3A4) = 3A4 (CYP3A4) (Homo sapiens, UniProt P08684); test: Reaction phenotyping with recombinant human CYP450 enzymes: CYP3A4; format: in vitro ADME
Chain of 3A4 (CYP3A4) (P08684 whole entry): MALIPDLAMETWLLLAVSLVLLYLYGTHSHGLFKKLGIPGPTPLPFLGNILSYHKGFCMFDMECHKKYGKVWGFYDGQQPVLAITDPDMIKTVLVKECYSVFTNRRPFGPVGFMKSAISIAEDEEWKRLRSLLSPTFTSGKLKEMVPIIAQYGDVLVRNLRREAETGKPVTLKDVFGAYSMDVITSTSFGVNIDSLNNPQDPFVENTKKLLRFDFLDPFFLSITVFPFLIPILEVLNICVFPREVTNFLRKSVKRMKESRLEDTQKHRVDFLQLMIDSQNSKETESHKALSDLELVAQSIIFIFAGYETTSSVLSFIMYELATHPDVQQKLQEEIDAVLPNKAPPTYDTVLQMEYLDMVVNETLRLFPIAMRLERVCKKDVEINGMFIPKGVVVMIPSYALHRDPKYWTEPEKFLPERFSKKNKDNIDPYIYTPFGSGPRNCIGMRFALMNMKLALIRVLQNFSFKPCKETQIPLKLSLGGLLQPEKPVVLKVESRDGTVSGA

[2] = system: several CYP450 enzymes including CYP3A4; test: In vitro CYP450 inhibition (human liver microsomes); format: in vitro ADME
From the text: However, the compound is also highly bound to constituents in human plasma, so distribution into hepatocytes may be hindered, reducing the inhibition potential. In vitro data using human cryopreserved hepatocytes have also shown that the spiro-oxindole compound metabolite (M3) is an inhibitor of CYP3A4 and CYP2C19. Therefore, certain medications that undergo major metabolism by CYP3A4 and CYP2C19 are excluded as concomitant medications during this study.

CYP3A4 = test: Drug-drug interaction study in dogs, oral spiro-oxindole compound with iv midazolam as CYP3A4 substrate; format: in vivo; conditions: oral administration
[3] = system: bacterial reverse mutation; test: Bacterial reverse mutation assay (GLP); format: cell-based
From the text: (§1) The spiro-oxindole compound was not genotoxic in the standard battery of genotoxicity tests (GLP), including a bacterial reverse mutation assay, an in vitro chromosome aberration assay in cultured human lymphocytes, and an in vivo rat bone marrow micronucleus test.

rat bone marrow = test: In vivo rat bone marrow micronucleus test (GLP)
From the text: as §1

[4] = Drug-drug interaction study in healthy subjects: pharmacokinetics of the spiro-oxindole compound (Biological Example 5); format: in vivo, human
From the text: Pharmacokinetic parameters were derived by noncompartmental analysis.

Compound: O=C1N(Cc2ccc(C(F)(F)F)o2)c2ccccc2[C@]12COc1cc3c(cc12)OCO3 [spiro-oxindole compound, (S)-1′-{[5-(trifluoromethyl)furan-2-yl]methyl}spiro[furo[2,3-f][1,3]benzodioxole-7,3′-indol]-2′(1′H)-one]
- protein bound [1]: 99.6%
- in vitro metabolic stability in hepatocytes (dog hepatocytes): 61%
- contribution to spiro-oxindole compound metabolism (3A4 (CYP3A4)): major contributors
- inhibition of CYP450 enzymes [2]: may inhibit several CYP450 enzymes including CYP3A4; also recorded: inhibitor of several CYP450 enzymes
- spiro-oxindole compound plasma concentrations without evidence of a DDI (CYP3A4): up to 752 ng/mL and ≤ 1.8 μM
- drug-drug interaction with iv midazolam (CYP3A4 substrate) (CYP3A4; plasma concentrations up to 752 ng/mL (i.e., 1.8 μM)): no evidence of a DDI
- genotoxicity [3]: not genotoxic
- genotoxicity (rat bone marrow): not genotoxic
- relationship of exposure with CYP2C19 phenotype [4]: no apparent relationship
- mean plasma concentration at the follow-up visit (360±24 hours) ([4]; after final application of 8% composition): 0.32629 ng/mL
- Cmax ([4]; both sexes, human, plasma, topical, 8 % composition applied to 53% of BSA, BID, day 9, over 24 hours from the final application, read-out: geometric mean Cmax): 15.1 ng/mL
- AUC(0-t) ([4]; both sexes, human, plasma, topical, 8 % composition applied to 53% of BSA, BID, first 12 hours after the final application, read-out: geometric mean AUC0-12): 133 ng·h/mL
- concentration at 24 hours ([4]; both sexes, human, plasma, topical, 8 % composition applied to 53% of BSA, day 9, after final application of 8% composition (BID, 53% BSA, 7.5 days), read-out: mean plasma concentration at 24 hours postdose): 11.7 ng/mL
- geometric mean Ctrough (predose value) ([4]; day 9, topical 8% composition BID 53% BSA): 12.76052 ng/mL
- average concentration over the 12-hour period ([4]; first 12 hours after the final application): 11075.55 pg/mL
- steady state (in words) ([4]; topical BID dosing): steady state had not been achieved after 7.5 days of dosing; also recorded: did not reach steady state within 7.5 days
